Experimental data reported in patent publication US20250114374A1, “BCL-2 INHIBITORS” (Newave Pharmaceutical Inc., priority 2021, published 2025).

Tested on: RS4; 11 with G101V mutation
Test: In vitro anti-proliferation assay (ATPlite luminescence) in BCL-2-dependent ALL cell line RS4;11 with G101V mutation
Format: cell-based
Conditions: Homo sapiens, RS4-11, 72 h; read-out: RS411-G101V IC50
Method in brief: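 IC50 came from luminescent ATP quantification (ATPlite) following cell lysis. Compound dose ranges were applied for roughly 72 h to about 1×10^4 G101V-mutant RS4;11 cells per well, in 10% FBS medium.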

IC50 [nM] | Compound
11.1 | Cc1ccccc1[C@@H]1CN(Cc2cnc(N3CCOC[C@@H]3C)c(OC(C)C)c2)CCN1C1CC2(CCN(c3ccc(C(=O)NS(=O)(=O)c4cc5c(c([N+](=O)[O-])c4)N[C@H](C4CCOCC4)CO5)c(N4c5cc6cc[nH]c6nc5O[C@H]5COCC[C@@H]54)c3)CC2)C1 [Example 190, 4-(2-((R)-4-((5-isopropoxy-6-((S)-3-methylmorpholino)pyridin-3-yl)methyl)-2-(o-tolyl)piperazin-1-yl)-7-azaspiro[3.5]nonan-7-yl)-N-(((R)-5-nitro-3-(tetrahydro-2H-pyran-4-yl)-3,4-dihydro-2H-benzo[b][1,4]oxazin-7-yl)sulfonyl)-2-((5aS,9aR)-6,7,9,9a-tetrahydro-1H-pyrano[3,4-b]pyrrolo[3′,2′:5,6]pyrido[3,2-e][1,4]oxazin-5(5aH)-yl)benzamide]

Same assay, conditions: cellular anti-proliferative IC50, about 72 hours, medium with 10% FBS, ATPlite; read-out: RS411-G101V IC50

Compound | IC50 [nM]
CC(C)Oc1ccccc1[C@@H]1CN(c2ccccn2)CCN1C1CC2(CCN(c3ccc(C(=O)NS(=O)(=O)c4cc5c(c([N+](=O)[O-])c4)N[C@H](C4CCOCC4)CO5)c(N4c5cc6cc[nH]c6nc5O[C@H]5COCC[C@@H]54)c3)CC2)C1 [Example 225, 2-[(3R,8S)-2,5-dioxa-9,15,17-triazatetracyclo[8.7.0.0^{3,8}.0^{12,16}]heptadeca-1(10),11,13,16-tetraen-9-yl]-4-{2-[(2R)-2-(2-isopropoxyphenyl)-4-(pyridin-2-yl)piperazin-1-yl]-7-azaspiro[3.5]nonan-7-yl}-N-[(3R)-5-nitro-3-(oxan-4-yl)-3,4-dihydro-2H-1,4-benzoxazin-7-ylsulfonyl]benzamide] | 180
Cc1ccccc1[C@@H]1CN(Cc2cnc(N3CCOC[C@@H]3C)c(C(F)(F)F)c2)CCN1C1CC2(CCN(c3ccc(C(=O)NS(=O)(=O)c4cc5c(c([N+](=O)[O-])c4)N[C@H](C4CCOCC4)CO5)c(N4c5cc6cc[nH]c6nc5O[C@H]5COCC[C@@H]54)c3)CC2)C1 [Example 206, 2-[(3R,8S)-2,5-dioxa-9,15,17-triazatetracyclo[8.7.0.0^{3,8}.0^{12,16}]heptadeca-1(10),11,13,16-tetraen-9-yl]-4-{2-[(2R)-4-({6-[(3S)-3-methylmorpholin-4-yl]-5-(trifluoromethyl)pyridin-3-yl}methyl)-2-(2-methylphenyl)piperazin-1-yl]-7-azaspiro[3.5]nonan-7-yl}-N-[(3R)-5-nitro-3-(oxan-4-yl)-3,4-dihydro-2H-1,4-benzoxazin-7-ylsulfonyl]benzamide] | 229
4-(2-((R)-2-(2-isopropoxyphenyl)-4-((S)-tetrahydro-2H-pyran-3-yl)piperazin-1-yl)-7-azaspiro[3.5]nonan-7-yl)-N-(((R)-5-nitro-3-(tetrahydro-2H-pyran-4-yl)-3,4-dihydro-2H-benzo[b][1,4]oxazin-7-yl)sulfonyl)-2-((5aS,9aR)-6,7,9,9a-tetrahydro-1H-pyrano[3,4-b]pyrrolo[3′,2′:5,6]pyrido[3,2-e][1,4]oxazin-5(5aH)-yl)benzamide [Example 208] | 72.7
CC(C)Oc1ccccc1[C@H]1CN(Cc2ccc(F)c(F)c2)CCN1C1CC2(CCN(c3ccc(C(=O)NS(=O)(=O)c4ccc(NCC5CCC(C)(O)CC5)c([N+](=O)[O-])c4)c(N4c5cc6cc[nH]c6nc5O[C@H]5COCC[C@@H]54)c3)CC2)C1 (stereo partly drawn) [Example 115, 4-{2-[(2S)-4-[(3,4-difluorophenyl)methyl]-2-(2-isopropoxyphenyl)piperazin-1-yl]-7-azaspiro[3.5]nonan-7-yl}-2-[(3R,8S)-2,5-dioxa-9,15,17-triazatetracyclo[8.7.0.0^{3,8}.0^{12,16}]heptadeca-1(10),11,13,16-tetraen-9-yl]-N-[3-nitro-4-({[(1r,4r)-4-hydroxy-4-methylcyclohexyl]methyl}amino)benzenesulfonyl]benzamide] | 27.3
Cc1ccccc1[C@@H]1CN(Cc2ccc(F)c(F)c2)CCN1C1CC2(CCN(c3ccc(C(=O)NS(=O)(=O)c4ccc(NCC5CCC(C)(O)CC5)c([N+](=O)[O-])c4)c(N4c5cc6cc[nH]c6nc5O[C@H]5COCC[C@@H]54)c3)CC2)C1 (stereo partly drawn) [Example 154, 4-{2-[(2R)-4-[(3,4-difluorophenyl)methyl]-2-(2-methylphenyl)piperazin-1-yl]-7-azaspiro[3.5]nonan-7-yl}-2-[(3R,8S)-2,5-dioxa-9,15,17-triazatetracyclo[8.7.0.0^{3,8}.0^{12,16}]heptadeca-1(10),11,13,16-tetraen-9-yl]-N-[3-nitro-4-({[(1r,4r)-4-hydroxy-4-methylcyclohexyl]methyl}amino)benzenesulfonyl]benzamide] | 27.6
Cc1ccccc1[C@@H]1CN(C2CCC3(CCOCC3)CC2)CCN1C1CC2(CCN(c3ccc(C(=O)NS(=O)(=O)c4cc5c(c([N+](=O)[O-])c4)N[C@H](C4CCOCC4)CO5)c(N4c5cc6cc[nH]c6nc5O[C@H]5COCC[C@@H]54)c3)CC2)C1 (stereo partly drawn) [Example 202, 2-[(3R,8S)-2,5-dioxa-9,15,17-triazatetracyclo[8.7.0.0^{3,8}.0^{12,16}]heptadeca-1(10),11,13,16-tetraen-9-yl]-4-{2-[(2R)-2-(2-methylphenyl)-4-{3-oxaspiro[5.5]undecan-9-yl}piperazin-1-yl]-7-azaspiro[3.5]nonan-7-yl}-N-[(3R)-5-nitro-3-(oxan-4-yl)-3,4-dihydro-2H-1,4-benzoxazin-7-ylsulfonyl]benzamide] | 15.1
CC(C)Oc1ccccc1[C@@H]1CN([C@@H](C)c2ccc(F)c(F)c2)CCN1C1CC2(CCN(c3ccc(C(=O)NS(=O)(=O)c4cc5c(c([N+](=O)[O-])c4)N[C@H](C4CCOCC4)CO5)c(N4c5cc6cc[nH]c6nc5O[C@H]5COCC[C@@H]54)c3)CC2)C1 [Example 243, 4-{2-[(2R)-4-[(1S)-1-(3,4-difluorophenyl)ethyl]-2-(2-isopropoxyphenyl)piperazin-1-yl]-7-azaspiro[3.5]nonan-7-yl}-2-[(3R,8S)-2,5-dioxa-9,15,17-triazatetracyclo[8.7.0.0^{3,8}.0^{12,16}]heptadeca-1(10),11,13,16-tetraen-9-yl]-N-[(3R)-5-nitro-3-(oxan-4-yl)-3,4-dihydro-2H-1,4-benzoxazin-7-ylsulfonyl]benzamide] | 22.2
COc1cc(CN2CCN(C3CC4(CCN(c5ccc(C(=O)NS(=O)(=O)c6cc7c(c([N+](=O)[O-])c6)N[C@H](C6CCOCC6)CO7)c(N6c7cc8cc[nH]c8nc7O[C@H]7COCC[C@@H]76)c5)CC4)C3)[C@H](c3ccccc3C(C)C)C2)cnc1OC [Example 173, 4-{2-[(2R)-4-[(5,6-dimethoxypyridin-3-yl)methyl]-2-(2-isopropylphenyl)piperazin-1-yl]-7-azaspiro[3.5]nonan-7-yl}-2-[(3R,8S)-2,5-dioxa-9,15,17-triazatetracyclo[8.7.0.0^{3,8}.0^{12,16}]heptadeca-1(10),11,13,16-tetraen-9-yl]-N-[(3R)-5-nitro-3-(oxan-4-yl)-3,4-dihydro-2H-1,4-benzoxazin-7-ylsulfonyl]benzamide] | 1
